Data taken from patent US10131702B2, “Glucagon-GLP-1-GIP triple agonist compounds” (priority 2013, dated 2018).
Like-named read-outs stand apart in the source and are kept apart here. Numbered stars: 1 amine (or outer) side, 2 acyl side, 3 side chain; on linkers, the order of the positions; unused ones are H or OH. Square brackets hold non-standard residues; d marks the D form. Side chains are listed from the residue outwards. Peptide text beside a SMILES is read from it. * marks the point of attachment. C18 diacid = O=C(O)CCCCCCCCCCCCCCCCC(=O)*; γGlu = O=C(O)[C@H](CCC(=O)[*:2])N[*:1]; Stearoyl = CCCCCCCCCCCCCCCCCC(=O)*; AEEA = NCCOCCOCC(=O)O; Aib = CC(C)(N)C(=O)O

Columns and labels:
Type in all cases: cell-based
human GCG R = molecular target: T1, human GCG R (Homo sapiens, UniProt P47871); assay: cAMP induction in HEK293 cells expressing human GCG R (AlphaScreen cAMP kit)
T1 construct: expressed in transfected cells
T1 sequence (P47871 26-477): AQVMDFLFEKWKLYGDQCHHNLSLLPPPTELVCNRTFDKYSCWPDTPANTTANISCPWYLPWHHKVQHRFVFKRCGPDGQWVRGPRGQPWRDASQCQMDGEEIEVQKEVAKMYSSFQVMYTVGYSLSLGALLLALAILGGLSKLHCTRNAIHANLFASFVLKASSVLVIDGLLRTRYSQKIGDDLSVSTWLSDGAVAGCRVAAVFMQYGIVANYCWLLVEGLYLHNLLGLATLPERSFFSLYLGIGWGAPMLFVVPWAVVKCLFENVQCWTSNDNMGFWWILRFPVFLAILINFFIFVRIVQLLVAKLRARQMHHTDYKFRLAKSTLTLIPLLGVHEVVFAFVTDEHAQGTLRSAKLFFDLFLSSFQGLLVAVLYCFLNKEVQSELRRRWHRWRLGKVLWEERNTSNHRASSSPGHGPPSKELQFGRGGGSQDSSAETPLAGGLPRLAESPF
Experimental: Briefly, HEK293 cells expressing the human GIP R, GLP-1 R or GCG R (stable cell lines generated through transfection of the cDNA for human GIP R, GLP-1 R or GCG R and selection of stable clones) were seeded at 30,000 cells/well in 96-well microtiter plates coated with 0.01% poly-L-lysine, and grown for 1 day in culture in 200 μl growth medium (DMEM, 10% FCS, Penicillin (100 IU/ml), Streptomycin (100 μg/ml)). On the day of analysis, growth medium was removed and the cells were washed once with 150 μl Tyrode's buffer (Tyrode's Salts (9.6 g/l), 10 mM HEPES, pH 7.4). […] The Assay buffer was removed and cells are lysed in 80 μl Lysis buffer (0.1% w/v BSA, 5 mM HEPES, 0.3% v/v Tween-20) per well. From each well 10 μl of lysed cells were transferred to a 384-well plate and mixed with 15 μl bead-mix (1 Unit/15 μl anti-cAMP Acceptor Beads, 1 Unit/15 μl Donor Beads, and 1 Unit/15 μl Biotinylated cAMP in Assay Buffer). The plates were mixed and incubated in the dark for an hour at room temperature before measuring using an Envision™ plate reader (Perkin-Elmer).
The resulting cAMP curves were plotted as absolute cAMP concentrations (nM) over log (test compound concentration) and analyzed using the curve fitting program XLfit.
Parameters calculated to describe both the potency as well as the agonistic activity of each test compound on the receptors were:
EC50, a concentration resulting in a half-maximal elevation of cAMP levels, reflecting the potency of the test compound.

human GLP-1 R = molecular target: T2, human GLP-1 R (Homo sapiens, UniProt P43220); assay: cAMP induction in HEK293 cells expressing human GLP-1 R (AlphaScreen cAMP kit); settings: average EC50, cAMP, HEK293 cells expressing human GLP-1 R, read-out: GLP1 R (EC50 in nM)
T2 construct: expressed in transfected cells
T2 sequence (P43220 24-463): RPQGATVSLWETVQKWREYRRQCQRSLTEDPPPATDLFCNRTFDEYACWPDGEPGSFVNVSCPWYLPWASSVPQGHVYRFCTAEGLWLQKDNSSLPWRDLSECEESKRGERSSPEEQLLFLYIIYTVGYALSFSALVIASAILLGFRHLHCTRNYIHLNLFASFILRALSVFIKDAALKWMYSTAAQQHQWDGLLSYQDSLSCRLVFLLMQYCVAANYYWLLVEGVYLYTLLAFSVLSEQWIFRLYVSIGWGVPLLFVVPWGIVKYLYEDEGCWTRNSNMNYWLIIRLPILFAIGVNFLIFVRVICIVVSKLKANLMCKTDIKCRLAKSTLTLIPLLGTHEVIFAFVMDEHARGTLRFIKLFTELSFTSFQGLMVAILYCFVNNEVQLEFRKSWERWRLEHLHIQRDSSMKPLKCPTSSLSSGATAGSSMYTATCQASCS

human GIP R = molecular target: T3, human GIP R (Homo sapiens, UniProt P48546); assay: cAMP induction in HEK293 cells expressing human GIP R (AlphaScreen cAMP kit)
T3 construct: expressed in transfected cells
T3 sequence (P48546 22-466): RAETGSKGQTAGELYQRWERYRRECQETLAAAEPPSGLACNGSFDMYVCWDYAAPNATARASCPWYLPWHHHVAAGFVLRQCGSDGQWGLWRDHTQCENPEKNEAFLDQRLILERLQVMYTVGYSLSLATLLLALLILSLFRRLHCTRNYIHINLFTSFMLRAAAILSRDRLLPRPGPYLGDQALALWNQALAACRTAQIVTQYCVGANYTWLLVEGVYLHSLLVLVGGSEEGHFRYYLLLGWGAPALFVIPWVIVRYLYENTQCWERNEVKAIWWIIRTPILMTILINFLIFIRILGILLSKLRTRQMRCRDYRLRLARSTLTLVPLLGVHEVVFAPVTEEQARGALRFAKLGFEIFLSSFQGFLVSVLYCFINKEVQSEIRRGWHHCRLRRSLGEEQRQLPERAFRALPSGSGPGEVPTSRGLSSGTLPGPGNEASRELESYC

[1] = Table 2b (most comprehensive data)
[2] = GIP R (EC50 in nM), Table 2, average EC50, cAMP
[3] = GIP R (EC50 in nM), Table 2b (most comprehensive data), average EC50, cAMP
[4] = Table 2b (most comprehensive data), average EC50, cAMP, read-out: GIP R (EC50 in nM)
[5] = Table 2b (most comprehensive data), average EC50, cAMP, HEK293 cells expressing human GCG R, read-out: GCG R (EC50 in nM)

## CCCCCCCCCCCCCCCC(=O)N[C@@H](CCC(=O)NCCCC[C@H](NC(=O)[C@H](CCC(=O)O)NC(=O)[C@H](CC(C)C)NC(=O)[C@H](Cc1ccc(O)cc1)NC(=O)[C@@H](NC(=O)[C@H](CO)NC(=O)[C@H](Cc1ccc(O)cc1)NC(=O)[C@H](CC(=O)O)NC(=O)[C@H](CO)NC(=O)[C@@H](NC(=O)[C@H](Cc1ccccc1)NC(=O)[C@@H](NC(=O)CNC(=O)[C@H](CCC(N)=O)NC(=O)C(C)(C)NC(=O)[C@@H](N)Cc1ccc(O)cc1)[C@@H](C)O)[C@@H](C)O)[C@@H](C)CC)C(=O)N[C@@H](CCCCN)C(=O)N[C@@H](C)C(=O)N[C@@H](C)C(=O)N[C@@H](CCCCN)C(=O)N[C@@H](CCC(=O)O)C(=O)N[C@@H](Cc1ccccc1)C(=O)N[C@H](C(=O)N[C@@H](CCC(=O)O)C(=O)N[C@@H](Cc1c[nH]c2ccccc12)C(=O)N[C@@H](CC(C)C)C(=O)N[C@@H](CC(C)C)C(=O)N[C@@H](CO)C(=O)N[C@@H](C)C(N)=O)C(C)C)C(=O)O [Compound 24] (HELM PEPTIDE1{Y.[Aib].Q.G.T.F.T.S.D.Y.S.I.Y.L.E.K.K.A.A.K.E.F.V.E.W.L.L.S.A.[am]}|PEPTIDE2{[CCCCCCCCCCCCCCCC(=O)[*:2]].[gGlu]}$PEPTIDE1,PEPTIDE2,16:R3-2:R2$$$V2.0)
Human GCG R
  EC50: 0.28 nM
Human GLP-1 R; Table 2
  EC50: 0.091 nM
Human GLP-1 R; [1]
  EC50: 0.091 nM
Human GIP R; [2]
  EC50: 0.1 nM
Human GIP R; [3]
  EC50: 0.1 nM

## CC(C)C[C@H](NC(=O)[C@H](CC(C)C)NC(=O)[C@H](Cc1c[nH]c2ccccc12)NC(=O)[C@H](CCC(=O)O)NC(=O)[C@@H](NC(=O)[C@H](Cc1ccccc1)NC(=O)[C@H](CCC(=O)O)NC(=O)[C@H](CCCCN)NC(=O)[C@H](CCC(N)=O)NC(=O)[C@H](C)NC(=O)[C@H](CCCCN)NC(=O)[C@H](CCCCN)NC(=O)[C@H](CCC(=O)O)NC(=O)[C@H](CC(C)C)NC(=O)[C@H](Cc1ccc(O)cc1)NC(=O)[C@H](CCCCN)NC(=O)[C@H](CO)NC(=O)[C@H](Cc1ccc(O)cc1)NC(=O)[C@H](CC(=O)O)NC(=O)[C@H](CO)NC(=O)[C@@H](NC(=O)[C@H](Cc1ccccc1)NC(=O)[C@@H](NC(=O)CNC(=O)[C@H](CCC(N)=O)NC(=O)C(C)(C)NC(=O)[C@@H](N)Cc1ccc(O)cc1)[C@@H](C)O)[C@@H](C)O)C(C)C)C(=O)N[C@@H](CO)C(=O)N[C@@H](C)C(N)=O [Compound 22] (HELM PEPTIDE1{Y.[Aib].Q.G.T.F.T.S.D.Y.S.K.Y.L.E.K.K.A.Q.K.E.F.V.E.W.L.L.S.A.[am]}$$$$V2.0)
Human GCG R
  EC50: 0.76 nM
Human GLP-1 R; Table 2
  EC50: 0.028 nM
Human GIP R; [2]
  EC50: 0.18 nM
Human GIP R; [3]
  EC50: 0.03 nM

## CC[C@H](C)[C@H](NC(=O)[C@H](CO)NC(=O)[C@H](Cc1ccc(O)cc1)NC(=O)[C@H](CC(=O)O)NC(=O)[C@H](CO)NC(=O)[C@@H](NC(=O)[C@H](Cc1ccccc1)NC(=O)[C@@H](NC(=O)CNC(=O)[C@H](CCC(N)=O)NC(=O)C(C)(C)NC(=O)[C@@H](N)Cc1ccc(O)cc1)[C@@H](C)O)[C@@H](C)O)C(=O)N[C@@H](Cc1ccc(O)cc1)C(=O)N[C@@H](CC(C)C)C(=O)N[C@@H](CC(=O)O)C(=O)N[C@@H](CO)C(=O)N[C@@H](CCCCN)C(=O)N[C@@H](C)C(=O)N[C@@H](C)C(=O)N[C@@H](Cc1c[nH]cn1)C(=O)N[C@@H](CC(=O)O)C(=O)N[C@@H](Cc1ccccc1)C(=O)N[C@H](C(=O)N[C@@H](CC(N)=O)C(=O)N[C@@H](Cc1c[nH]c2ccccc12)C(=O)N[C@@H](CC(C)C)C(=O)N[C@@H](CC(C)C)C(=O)N[C@@H](CO)C(=O)N[C@@H](C)C(N)=O)C(C)C [Compound 11] (HELM PEPTIDE1{Y.[Aib].Q.G.T.F.T.S.D.Y.S.I.Y.L.D.S.K.A.A.H.D.F.V.N.W.L.L.S.A.[am]}$$$$V2.0)
Human GCG R
  EC50: 0.11 nM
Human GLP-1 R; Table 2
  EC50: 0.02 nM
Human GLP-1 R; [1]
  EC50: 0.11 nM
Human GIP R; [2]
  EC50: 0.28 nM

## CCCCCCCCCCCCCCCC(=O)N[C@@H](CCC(=O)NCCCC[C@H](NC(=O)[C@H](CO)NC(=O)[C@H](Cc1ccc(O)cc1)NC(=O)[C@H](CC(=O)O)NC(=O)[C@H](CO)NC(=O)[C@@H](NC(=O)[C@H](Cc1ccccc1)NC(=O)[C@@H](NC(=O)CNC(=O)[C@H](CCC(N)=O)NC(=O)C(C)(C)NC(=O)[C@@H](N)Cc1ccc(O)cc1)[C@@H](C)O)[C@@H](C)O)C(=O)N[C@@H](Cc1ccc(O)cc1)C(=O)N[C@@H](CC(C)C)C(=O)N[C@@H](CCC(=O)O)C(=O)N[C@@H](CCCCN)C(=O)N[C@@H](CCCCN)C(=O)N[C@@H](C)C(=O)N[C@@H](C)C(=O)N[C@@H](CCCCN)C(=O)N[C@@H](CCC(=O)O)C(=O)N[C@@H](Cc1ccccc1)C(=O)N[C@H](C(=O)N[C@@H](CCC(=O)O)C(=O)N[C@@H](Cc1c[nH]c2ccccc12)C(=O)N[C@@H](CC(C)C)C(=O)N[C@@H](CC(C)C)C(=O)N[C@@H](CO)C(=O)N[C@@H](C)C(N)=O)C(C)C)C(=O)O [Compound 25] (HELM PEPTIDE1{Y.[Aib].Q.G.T.F.T.S.D.Y.S.K.Y.L.E.K.K.A.A.K.E.F.V.E.W.L.L.S.A.[am]}|PEPTIDE2{[CCCCCCCCCCCCCCCC(=O)[*:2]].[gGlu]}$PEPTIDE1,PEPTIDE2,12:R3-2:R2$$$V2.0)
Human GCG R; Table 2, average EC50, cAMP, HEK293 cells expressing human GCG R, read-out: GCG R (EC50 in nM)
  EC50: 0.3 nM
Human GLP-1 R; Table 2
  EC50: 0.28 nM
Human GLP-1 R; [1]
  EC50: 0.28 nM
Human GIP R; Table 2, average EC50, cAMP, read-out: GIP R (EC50 in nM)
  EC50: 0.25 nM
Human GIP R; [4]
  EC50: 0.25 nM

## CC[C@H](C)[C@H](NC(=O)[C@H](CO)NC(=O)[C@H](Cc1ccc(O)cc1)NC(=O)[C@H](CC(=O)O)NC(=O)[C@H](CO)NC(=O)[C@@H](NC(=O)[C@H](Cc1ccccc1)NC(=O)[C@@H](NC(=O)CNC(=O)[C@H](CCC(N)=O)NC(=O)C(C)(C)NC(=O)[C@@H](N)Cc1ccc(O)cc1)[C@@H](C)O)[C@@H](C)O)C(=O)N[C@@H](Cc1ccc(O)cc1)C(=O)N[C@@H](CC(C)C)C(=O)N[C@@H](CCC(=O)O)C(=O)N[C@@H](CCCCN)C(=O)N[C@@H](CCCCNC(=O)COCCOCCNC(=O)COCCOCCNC(=O)CC[C@H](NC(=O)CCCCCCCCCCCCCCCCC(=O)O)C(=O)O)C(=O)N[C@@H](C)C(=O)N[C@@H](CCC(N)=O)C(=O)N[C@@H](CCCNC(=N)N)C(=O)N[C@@H](C)C(=O)N[C@@H](Cc1ccccc1)C(=O)N[C@H](C(=O)N[C@@H](CCC(=O)O)C(=O)N[C@@H](Cc1c[nH]c2ccccc12)C(=O)N[C@@H](CC(C)C)C(=O)N[C@@H](CC(C)C)C(=O)N[C@@H](CCCNC(=N)N)C(=O)N[C@@H](C)C(N)=O)C(C)C [Compound 51] (H-Y[Aib]QGTFTSDYSIYLEKK([AEEA-AEEA-γGlu-C18 diacid])AQRAFVEWLLRA-NH2)
Human GCG R; [5]
  EC50: 1.4 nM
Human GLP-1 R; [1]
  EC50: 0.026 nM
Human GIP R; [4]
  EC50: 0.033 nM

## CCCCCCCCCCCCCCCC(=O)N[C@@H](CCC(=O)NCCCC[C@H](NC(=O)[C@H](CO)NC(=O)[C@H](CC(=O)O)NC(=O)[C@H](CC(C)C)NC(=O)[C@H](Cc1ccc(O)cc1)NC(=O)[C@H](CCCCN)NC(=O)[C@H](CO)NC(=O)[C@H](Cc1ccc(O)cc1)NC(=O)[C@H](CC(=O)O)NC(=O)[C@H](CO)NC(=O)[C@@H](NC(=O)[C@H](Cc1ccccc1)NC(=O)[C@@H](NC(=O)CNC(=O)[C@H](CCC(N)=O)NC(=O)C(C)(C)NC(=O)[C@@H](N)Cc1ccc(O)cc1)[C@@H](C)O)[C@@H](C)O)C(=O)N[C@@H](C)C(=O)N[C@@H](C)C(=O)N[C@@H](Cc1c[nH]cn1)C(=O)N[C@@H](CC(=O)O)C(=O)N[C@@H](Cc1ccccc1)C(=O)N[C@H](C(=O)N[C@@H](CCC(=O)O)C(=O)N[C@@H](Cc1c[nH]c2ccccc12)C(=O)N[C@@H](CC(C)C)C(=O)N[C@@H](CC(C)C)C(=O)N[C@@H](CO)C(=O)N[C@@H](C)C(N)=O)C(C)C)C(=O)O [Compound 2] (HELM PEPTIDE1{Y.[Aib].Q.G.T.F.T.S.D.Y.S.K.Y.L.D.S.K.A.A.H.D.F.V.E.W.L.L.S.A.[am]}|PEPTIDE2{[CCCCCCCCCCCCCCCC(=O)[*:2]].[gGlu]}$PEPTIDE1,PEPTIDE2,17:R3-2:R2$$$V2.0)
Human GCG R
  EC50: 0.046 nM
Human GLP-1 R; Table 2
  EC50: 0.089 nM
Human GIP R; [2]
  EC50: 0.35 nM

## CCCCCCCCCCCCCCCCCC(=O)N[C@@H](CCC(=O)NCCOCCOCC(=O)NCCOCCOCC(=O)NCCCC[C@H](NC(=O)[C@H](CCCCN)NC(=O)[C@H](CCC(=O)O)NC(=O)[C@H](CC(C)C)NC(=O)[C@H](Cc1ccc(O)cc1)NC(=O)[C@@H](NC(=O)[C@H](CO)NC(=O)[C@H](Cc1ccc(O)cc1)NC(=O)[C@H](CC(=O)O)NC(=O)[C@H](CO)NC(=O)[C@@H](NC(=O)[C@H](Cc1ccccc1)NC(=O)[C@@H](NC(=O)CNC(=O)[C@H](CCC(N)=O)NC(=O)C(C)(C)NC(=O)[C@@H](N)Cc1ccc(O)cc1)[C@@H](C)O)[C@@H](C)O)[C@@H](C)CC)C(=O)N[C@@H](C)C(=O)N[C@@H](C)C(=O)N[C@@H](CCCCN)C(=O)N[C@@H](CCC(=O)O)C(=O)N[C@@H](Cc1ccccc1)C(=O)N[C@H](C(=O)N[C@@H](CCC(=O)O)C(=O)N[C@@H](Cc1c[nH]c2ccccc12)C(=O)N[C@@H](CC(C)C)C(=O)N[C@@H](CC(C)C)C(=O)N[C@@H](CO)C(=O)N[C@@H](C)C(=O)NCC(=O)N1CCC[C@H]1C(=O)N[C@@H](CO)C(=O)N[C@@H](CO)C(=O)NCC(=O)N[C@@H](C)C(=O)N1CCC[C@H]1C(=O)N1CCC[C@H]1C(=O)N1CCC[C@H]1C(=O)N[C@@H](CO)C(N)=O)C(C)C)C(=O)O [Compound 37] (H-Y[Aib]QGTFTSDYSIYLEKK([AEEA-AEEA-γGlu-Stearoyl])AAKEFVEWLLSAGPSSGAPPPS-NH2)
Human GCG R; [5]
  EC50: 0.014 nM
Human GIP R; [4]
  EC50: 0.018 nM
